Literature values as cited in article PMC9370779, “Traditional Medicinal Uses, Phytochemistry, Biological Properties, and Health Applications of Vitex sp” (Plants, 2022).
Entries after “also recorded” stand apart in the source; their conditions may differ.

Key:
[1] = target: dopamine-D2-receptor; design: method as in PMID 10865453
[2] = tested on: cervical cancer (HeLa) cell; design: method as in PMID 19156599; conditions: range given for both compounds together; read-out: inhibition of HeLa cell proliferation, IC50
[3] = tested on: MOR; design: method as in PMID 21163339
[4] = tested on: DOR; design: method as in PMID 21163339
[5] = tested on: severe myelogenous leukemia tumor (K562) cells; design: method as in doi:10.1016/j.jscs.2021.101298; conditions: read-out: cytotoxicity against K562 cells, IC50 value
[6] = tested on: RAW 264.7 macrophages; design: method as in PMID 25245917; conditions: at 40 μM
[7] = tested on: pancreatic cancer (PANC-01)
[8] = tested on: esophageal carcinoma (Eca-109)
[9] = tested on: gastric cancer (SGC-7901)
[10] = tested on: leukemia (HL-60)
[11] = tested on: LPS-induced NO production in murine microglial cell BV-2 cells; design: method as in PMID 31448638; conditions: read-out: inhibition of LPS-stimulated NO production, IC50
[12] = tested on: BV-2 cells; design: method as in PMID 31448638
[13] = tested on: NO production; design: method as in PMID 25245917; conditions: at 80 μM, the highest concentration tested

**Q.** Which “affinity to the dopamine-D2-receptor, IC50 value” [1] does the source give for C=CC(C)(O)CCC1=C(C)C(OC(C)=O)C(OC(C)=O)C2C(C)(C)CCCC12C (stereo not drawn) [Compound 52, 6β,7β-diacetoxy-13-hydroxy-labda-8,14-diene] here?
**A.** The value was “It showed strong affinity to the dopamine-D2-receptor with IC50 value of 15 μg/mL”.

**Q.** For CC(=O)O[C@H]1CC[C@@]2(C)[C@@H](CC[C@@H](C)[C@]2(O)CCc2ccoc2)C1(C)C [Compound 56, Vitetrifolin H], which IC50 [2] is on record?
**A.** Its IC50 is 4 to 28 µM.

**Q.** What does the source list for CC(=O)O[C@@H]1C[C@@H](C)[C@](O)(CCC2=CC(=O)OC2O)[C@@]2(C)CCCC(C)(C)[C@H]12 (stereo partly shown) [Compound 58, Viteagnusin I]?
**A.** activity on opioid receptor assay MOR [3]: No activity was shown on opioid receptor assays DOR and MOR.; activity on opioid receptor assay DOR [4]: No activity was shown on opioid receptor assays DOR and MOR.

**Q.** Which IC50 [5] does the source give for CC(=O)OC1CC(C)C2(CCC3(COC(=O)C3)O2)C2(C)CCCC(C)(C)C12 (stereo not shown) [Compound 99, 9-epivitexnegundin] here?
**A.** Its IC50 is over 100 µM.

**Q.** Which “cell viability of RAW 264.7 macrophages” value [6] does the source give for CC1(C)CC[C@@]23CC[C@@]4(C)[C@]5(C)CC[C@H]6C(C)(C)[C@@H](O)[C@H](O)C[C@]6(C)[C@H]5CC(=O)[C@]4(OC2=O)[C@@H]3C1 [Compound 145, cannabifolin E] here?
**A.** The value was under 70%.

**Q.** With CC1C(C=O)CCC2(C(=O)O)CCC3(C)C(=CCC4C5(C)CCC(O)C(C)(C)C5CCC43C)C12 (stereo not drawn) [Compound 147, 3β-hydroxy-30-al-urs-12-en-28-oic acid] as the molecule, how does the “cytotoxic activity against PANC-01” value [7] read?
**A.** The value was “Exhibited cytotoxic activity against HL-60, SGC-7901, PANC-01, and Eca-109 cell lines”.

**Q.** And the “cytotoxic activity against Eca-109” value [8]?
**A.** The value was “Exhibited cytotoxic activity against HL-60, SGC-7901, PANC-01, and Eca-109 cell lines”.

**Q.** What about the “cytotoxic activity against SGC-7901” value [9] of the same molecule?
**A.** The value was “Exhibited cytotoxic activity against HL-60, SGC-7901, PANC-01, and Eca-109 cell lines”.

**Q.** And the “cytotoxic activity against HL-60” value [10]?
**A.** The value was “Exhibited cytotoxic activity against HL-60, SGC-7901, PANC-01, and Eca-109 cell lines”.

**Q.** Which IC50 [11] does the source give for O=C(O)CC1CCC(=O)C1CC=CCCOC1OC(COC(=O)C=Cc2ccc(O)c(O)c2)C(O)C(O)C1O (stereo not shown) [Compound 159, 12-hydroxyjasmonic acid (6-O-caffeoyl)glucoside] here?
**A.** The IC50 was over 100 µM.

**Q.** What about the “cytotoxic effect on BV-2 cells” value [12] of the same molecule?
**A.** Its value is “no cytotoxic effect; also recorded: no effect of cytotoxicity”.

**Q.** For cannabifolin F [Compound 146], which “inhibition of NO production” value [13] is on record?
**A.** Its value is under 50%.
